Values after ≈ are worked out from the molar mass of the structure shown. Positions of bridges follow the written chain, without caps; N, C: chain ends. Non-standard residues stand in square brackets, D forms with d. Residues, ends and D or L forms follow the SMILES beside them. *: point of attachment. S(2-cyclohexylethyl) = C1CCC(CCS*)CC1; S(3-Cl-benzyl) = Clc1cccc(CS*)c1; X3 = c1ccc(Oc2ccc(CS*)cc2)cc1; X5 = c1ccc(-c2ccc(CS*)cc2)cc1; S(3-Methylbutyl) = CC(C)CCS*; X6 = c1ccc(-c2ccc(S*)cc2)cc1; Dab = NCC[C@H](N)C(=O)O; X1 = CC(C)CCCCS*; X4 = CCCCCCS*
Columns and labels:
[1] = tested on: A. baumannii (ATCC 19606); format: cell-based; conditions: ATCC 19606
Protocol: (§1) Minimum inhibitory concentrations (MICs) on relevant Gram-negative bacteria were determined by broth microdilution, in accordance with CLSI guidelines. Indicated bacteria were taken from glycerol stocks and incubated overnight on blood agar at 37 °C. Well-isolated colonies were taken, suspended in TSB (5 mL), and grown to an OD600 of 0.5. Compounds to be tested were dissolved in DMSO (6.4 mg/mL), diluted in cation-adjusted Mueller–Hinton Broth (CAMHB) (12.5 and 20 μg/mL Mg^2+ and Ca^2+, respectively), and diluted serially on polypropylene microtiter plates. To the diluted compounds (50 μL per well) was added 50 μL of relevant bacterial suspension, to yield a final concentration of 10^6 CFU/mL. Plates were covered by adhesive gas-permeable membranes and incubated at 37 °C. MIC was read out as the lowest concentration that inhibited visual bacterial growth. Shown values are consistent results from at least duplicate experiments.

E. coli (ATCC 25922) = format: cell-based; conditions: ATCC 25922
Protocol: as §1

[2] = tested on: K. pneumoniae (ATCC 13883); format: cell-based; conditions: ATCC 13883
Protocol: as §1

[3] = tested on: P. aeruginosa (ATCC 27853); format: cell-based; conditions: ATCC 27853
Protocol: as §1

[4] = tested on: differentiated conditionally immortalized PTECs (ciPTECs, OAT-1); assay: ciPTEC toxicity assay (PrestoBlue); format: cell-based, human
Protocol: ciPTECs (OAT-1) cells,[52],[53] grown to 90–100% confluence, were washed by Hanks’ balanced salt solution (HBSS; Gibco, Life Technologies, Paisley, U.K.) and detached by accutase (4 mL) for 5 min at 37 °C. The cells were then suspended in fresh medium (DMEM/F-12, supplemented with 10% fetal calf serum, insulin (5 μg/mL), transferrin (5 μg/mL), selenium (5 μg/mL) hydrocortisone (35 ng/mL), Epidermal Growth Factor (10 ng/mL) and tri-iodothyronine (40 pg/mL)). Cell density was adjusted to 2.0 × 10^5 cells/mL, of which 100 μL was added to each well of a 96-well plate. The cells were incubated for 24 h at 33 °C, followed by 6 days at 37 °C, in a humidified atmosphere containing 5% (v/v) CO2. The medium was refreshed every second or third day.
Compounds were dissolved and serially diluted in serum-free medium. Differentiated cells were washed once with HBSS and serially diluted compounds (80 μL/well) were transferred to the ciPTEC-containing plate. Compounds were incubated for 24 h at 37 °C; the cells were washed by HBSS, followed by incubation with 10% PrestoBlue cell viability reagent (Thermo Scientific, Vienna, Austria) in HBSS at 37 °C in the dark. Fluorescence was recorded (excitation: 530 nm, emission: 590 nm). Raw data are corrected for PrestoBlue background fluorescence and reported relative to the no-treatment control (cells with medium only). Viability data were fitted with GraphPad Prism software (version 5.03; GraphPad Software, La Jolla, CA), by nonlinear regression with 0 as bottom constraint. Presented data are based on triplicates.
Toxicity assessment on PTECs
Table S1. TC50 values for polymyxin analogues. Toxicity assessment on proximal tubular epithelial cells
performed using PrestoBlue™ assay. TC50 values are derived after non-linear regression analysis on cell viability
correspond to data obtained from 2 different batches of cells/analyses on different days. As the value for
polymyxin B differs 2-fold, values in the manuscript are presented relative to the polymyxin B value.
Compound TC50 (µ M) Compound TC50 (µ M)
Polymyxin B 80 Polymyxin B 41
Figure S3. Representative traces of ciPTECs’ viability after incubation with analogues for 24 hours. Shown data are based on […]

Row | SMILES | MIC A. baumannii (ATCC 19606) [1] [µg/mL] | MIC E. coli (ATCC 25922) (E. coli (ATCC 25922)) [µg/mL] | MIC K. pneumoniae (ATCC 13883) [2] [µg/mL] | MIC P. aeruginosa (ATCC 27853) [3] [µg/mL] | TC50, Day 2 [4] [µM] | ciPTEC Toxicity Index (relative to polymyxin B) [4] | TC50, Day 1 [4] [µM]
1 | CC(C)C[C@@H]1NC(=O)[C@@H](Cc2ccccc2)NC(=O)[C@H](CCN)NC(=O)[C@@H](NC(=O)[C@H](CCN)NC(=O)[C@@H](NC(=O)[C@H](N)CSSCCC2CCCCC2)[C@@H](C)O)CCNC(=O)[C@H]([C@@H](C)O)NC(=O)[C@H](CCN)NC(=O)[C@H](CCN)NC1=O [Compound 19b] (H-[dC](S(2-cyclohexylethyl))T[Dab][Dab][Dab][dF]L[Dab][Dab]T; lactam 4-C) | 1 (≈ 0.827 µM) | 1 (≈ 0.827 µM) | 1 (≈ 0.827 µM) | 2 (≈ 1.65 µM) | 51 | – | –
2 | CC(C)C[C@@H]1NC(=O)[C@@H](Cc2ccccc2)NC(=O)[C@H](CCN)NC(=O)[C@@H](NC(=O)[C@H](CCN)NC(=O)[C@@H](NC(=O)[C@H](N)CSSCc2cccc(Cl)c2)[C@@H](C)O)CCNC(=O)[C@H]([C@@H](C)O)NC(=O)[C@H](CCN)NC(=O)[C@H](CCN)NC1=O [Compound 38] (H-[dC](S(3-Cl-benzyl))T[Dab][Dab][Dab][dF]L[Dab][Dab]T; lactam 4-C) | 1 (≈ 0.818 µM) | 1 (≈ 0.818 µM) | 0.5 (≈ 0.409 µM) | 4 (≈ 3.27 µM) | 74 | – | –
3 | CC(C)CCSSC[C@H](N)C(=O)N[C@H](C(=O)N[C@@H](CCN)C(=O)N[C@H]1CCNC(=O)[C@H]([C@@H](C)O)NC(=O)[C@H](CCN)NC(=O)[C@H](CCN)NC(=O)[C@H](CC(C)C)NC(=O)[C@@H](Cc2ccccc2)NC(=O)[C@H](CCN)NC1=O)[C@@H](C)O [Compound 18a] (H-C(S(3-Methylbutyl))T[Dab][Dab][Dab][dF]L[Dab][Dab]T; lactam 4-C) | >32 | 16 (≈ 13.7 µM) | 8 (≈ 6.85 µM) | 2 (≈ 1.71 µM) | – | 9.8 | 786
4 | CCCCCCSSC[C@H](N)C(=O)N[C@H](C(=O)N[C@@H](CCN)C(=O)N[C@H]1CCNC(=O)[C@H]([C@@H](C)O)NC(=O)[C@H](CCN)NC(=O)[C@H](CCN)NC(=O)[C@H](CC(C)C)NC(=O)[C@@H](Cc2ccccc2)NC(=O)[C@H](CCN)NC1=O)[C@@H](C)O [Compound 17a] (H-C(X4)T[Dab][Dab][Dab][dF]L[Dab][Dab]T; lactam 4-C) | >32 | 8 (≈ 6.77 µM) | 4 (≈ 3.38 µM) | 2 (≈ 1.69 µM) | – | 5.3 | 421
5 | CCCCCCSSC[C@@H](N)C(=O)N[C@H](C(=O)N[C@@H](CCN)C(=O)N[C@H]1CCNC(=O)[C@H]([C@@H](C)O)NC(=O)[C@H](CCN)NC(=O)[C@H](CCN)NC(=O)[C@H](CC(C)C)NC(=O)[C@@H](Cc2ccccc2)NC(=O)[C@H](CCN)NC1=O)[C@@H](C)O [Compound 17b] (H-[dC](X4)T[Dab][Dab][Dab][dF]L[Dab][Dab]T; lactam 4-C) | 1 (≈ 0.846 µM) | 2 (≈ 1.69 µM) | 0.5 (≈ 0.423 µM) | 2 (≈ 1.69 µM) | – | 3.0 | 240

Now from value to molecule, other results behind:

Row | MIC A. baumannii (ATCC 19606) [1] [µg/mL] | MIC E. coli (ATCC 25922) (E. coli (ATCC 25922)) [µg/mL] | MIC K. pneumoniae (ATCC 13883) [2] [µg/mL] | MIC P. aeruginosa (ATCC 27853) [3] [µg/mL] | SMILES | TC50, Day 2 [4] [µM] | ciPTEC Toxicity Index (relative to polymyxin B) [4] | TC50, Day 1 [4] [µM]
6 | 1 (≈ 0.781 µM) | 4 (≈ 3.12 µM) | 1 (≈ 0.781 µM) | 4 (≈ 3.12 µM) | CC(C)C[C@@H]1NC(=O)[C@@H](Cc2ccccc2)NC(=O)[C@H](CCN)NC(=O)[C@@H](NC(=O)[C@H](CCN)NC(=O)[C@@H](NC(=O)[C@H](N)CSSCc2ccc(Oc3ccccc3)cc2)[C@@H](C)O)CCNC(=O)[C@H]([C@@H](C)O)NC(=O)[C@H](CCN)NC(=O)[C@H](CCN)NC1=O [Compound 37] (H-[dC](X3)T[Dab][Dab][Dab][dF]L[Dab][Dab]T; lactam 4-C) | 72 | 1.8 | –
7 | 1 (≈ 0.79 µM) | 2 (≈ 1.58 µM) | 1 (≈ 0.79 µM) | 1 (≈ 0.79 µM) | CC(C)C[C@@H]1NC(=O)[C@@H](Cc2ccccc2)NC(=O)[C@H](CCN)NC(=O)[C@@H](NC(=O)[C@H](CCN)NC(=O)[C@@H](NC(=O)[C@@H](CSSCCC2CCCCC2)NC(=O)CN)[C@@H](C)O)CCNC(=O)[C@H]([C@@H](C)O)NC(=O)[C@H](CCN)NC(=O)[C@H](CCN)NC1=O [Compound 23b] (H-G[dC](S(2-cyclohexylethyl))T[Dab][Dab][Dab][dF]L[Dab][Dab]T; lactam 5-C) | 58 | – | –
8 | 1 (≈ 0.791 µM) | 4 (≈ 3.16 µM) | 1 (≈ 0.791 µM) | 2 (≈ 1.58 µM) | CC(C)C[C@@H]1NC(=O)[C@@H](Cc2ccccc2)NC(=O)[C@H](CCN)NC(=O)[C@@H](NC(=O)[C@H](CCN)NC(=O)[C@@H](NC(=O)[C@H](N)CSSCc2ccc(-c3ccccc3)cc2)[C@@H](C)O)CCNC(=O)[C@H]([C@@H](C)O)NC(=O)[C@H](CCN)NC(=O)[C@H](CCN)NC1=O [Compound 36] (H-[dC](X5)T[Dab][Dab][Dab][dF]L[Dab][Dab]T; lactam 4-C) | 68 | 1.7 | –
9 | 1 (≈ 0.816 µM) | 2 (≈ 1.63 µM) | 0.5 (≈ 0.408 µM) | 1 (≈ 0.816 µM) | CC(C)CCSSC[C@@H](NC(=O)CN)C(=O)N[C@H](C(=O)N[C@@H](CCN)C(=O)N[C@H]1CCNC(=O)[C@H]([C@@H](C)O)NC(=O)[C@H](CCN)NC(=O)[C@H](CCN)NC(=O)[C@H](CC(C)C)NC(=O)[C@@H](Cc2ccccc2)NC(=O)[C@H](CCN)NC1=O)[C@@H](C)O [Compound 22b] (H-G[dC](S(3-Methylbutyl))T[Dab][Dab][Dab][dF]L[Dab][Dab]T; lactam 5-C) | – | – | 163
10 | 1 (≈ 0.798 µM) | 2 (≈ 1.6 µM) | 1 (≈ 0.798 µM) | 2 (≈ 1.6 µM) | CC(C)CCCCSSC[C@@H](NC(=O)CN)C(=O)N[C@H](C(=O)N[C@@H](CCN)C(=O)N[C@H]1CCNC(=O)[C@H]([C@@H](C)O)NC(=O)[C@H](CCN)NC(=O)[C@H](CCN)NC(=O)[C@H](CC(C)C)NC(=O)[C@@H](Cc2ccccc2)NC(=O)[C@H](CCN)NC1=O)[C@@H](C)O [Compound 24b] (H-G[dC](X1)T[Dab][Dab][Dab][dF]L[Dab][Dab]T; lactam 5-C) | 63 | – | –
11 | 1 (≈ 0.807 µM) | 2 (≈ 1.61 µM) | 1 (≈ 0.807 µM) | 2 (≈ 1.61 µM) | CCCCCCSSC[C@@H](NC(=O)CN)C(=O)N[C@H](C(=O)N[C@@H](CCN)C(=O)N[C@H]1CCNC(=O)[C@H]([C@@H](C)O)NC(=O)[C@H](CCN)NC(=O)[C@H](CCN)NC(=O)[C@H](CC(C)C)NC(=O)[C@@H](Cc2ccccc2)NC(=O)[C@H](CCN)NC1=O)[C@@H](C)O [Compound 21b] (H-G[dC](X4)T[Dab][Dab][Dab][dF]L[Dab][Dab]T; lactam 5-C) | – | 4.4 | 357
12 | 16 (≈ 12.2 µM) | 4 (≈ 3.06 µM) | 2 (≈ 1.53 µM) | 8 (≈ 6.12 µM) | CC(C)C[C@@H]1NC(=O)[C@@H](Cc2ccccc2)NC(=O)[C@H](CCN)NC(=O)[C@@H](NC(=O)[C@H](CCN)NC(=O)[C@@H](NC(=O)[C@H](CSSc2ccc(-c3ccccc3)cc2)NC(=O)CN)[C@@H](C)O)CCNC(=O)[C@H]([C@@H](C)O)NC(=O)[C@H](CCN)NC(=O)[C@H](CCN)NC1=O [Compound 31a] (H-GC(X6)T[Dab][Dab][Dab][dF]L[Dab][Dab]T; lactam 5-C) | – | – | –

— article PMC9743094, “Synthesis and Evaluation of Polymyxins Bearing Reductively Labile Disulfide-Linked Lipids” (Journal of Medicinal Chemistry, 2022)
